According to patent publication US10905671B2, “Method of using omega 3 fatty acids to treat diseases which involve damage to the nervous system” (priority 2013, dated 2021):

How the values were obtained:
[1] = test system: moderate thyroid eye disease; test: Patients with moderate thyroid eye disease (Example 5); assay type: in vivo, human; details: 3 patients; 10 mg
Description: The invention was used in 3 patients with moderate thyroid eye disease. The patients were controlled with 10 mg of prednisolone or with 7.5 g to 10 g of EPA and DHA and having a AA/EPA ratio between 1 to 1.5.

scleritis = test: Patients with scleritis (Example 3); assay type: in vivo, human; details: two patients; 10 mg

C[C@]12C=CC(=O)C=C1CC[C@@H]1[C@@H]2[C@@H](O)C[C@@]2(C)[C@H]1CC[C@]2(O)C(=O)CO [prednisolone]
control of thyroid eye disease [1]: controlled | control of scleritis (scleritis): controlled | side effects (scleritis): had to stop due to the side effects
